Key:
[1] = compound: C1CC(C1)(C(=O)[O-])C(=O)[O-].N.N.[Pt+2] [Carboplatin]; conditions: max 10 µM
Procedure, shortened: (§1)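 Cancer cell lines in 1536-well plates (7.5 μl DMEM/F12 or RPMI, 10% FBS) were held 24 hours at 37°C and 5% CO2 and then dosed for 72 hours at a final DMSO of typically 0.2%. Viability was taken from CellTiter-Glo 2.0 luminescence, scaled between blank-well and DMSO-well means. Curves were fitted as two-parameter logistic models with a non-linear mixed effects model, from which the single-agent IC50 was taken.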

[2] = compound: C1CN(CCC1(C(=O)N[C@@H](CCO)C2=CC=C(C=C2)Cl)N)C3=NC=NC4=C3C=CN4 [AZD5363]; conditions: max 10 µM
Procedure, shortened: as §1

[3] = compound: C=CCn1c(=O)c2cnc(Nc3ccc(N4CCN(C)CC4)cc3)nc2n1-c1cccc(C(C)(C)O)n1 [AZD1775]; conditions: max 3 µM
Procedure, shortened: as §1

[4] = compound: CC(=O)Nc1cccc(-n2c(=O)n(C3CC3)c(=O)c3c(Nc4ccc(I)cc4F)n(C)c(=O)c(C)c32)c1 [Trametinib]; conditions: max 1 µM
Procedure, shortened: as §1

[5] = compound: CC(=O)O[C@H]1C(=O)[C@@]2(C)[C@H]([C@H](OC(=O)c3ccccc3)[C@]3(O)C[C@H](OC(=O)[C@H](O)[C@@H](NC(=O)c4ccccc4)c4ccccc4)C(C)=C1C3(C)C)[C@]1(OC(C)=O)CO[C@@H]1C[C@@H]2O [Paclitaxel]; conditions: max 3 µM
Procedure, shortened: as §1

[6] = compound: CC(=O)c1c(C)c2cnc(Nc3ccc(N4CCNCC4)cn3)nc2n(C2CCCC2)c1=O [Palbociclib]; conditions: max 10 µM
Procedure, shortened: as §1

[7] = compound: CC(C)n1c(=O)n(C)c2cnc3cc(F)c(-c4ccc(OCCCN5CCCCC5)nc4)cc3c21 [AZD1390]; conditions: max 0.3 µM
Procedure, shortened: as §1

[8] = compound: CC1(C)CCC(CN2CCN(c3ccc(C(=O)NS(=O)(=O)c4ccc(NCC5CCOCC5)c([N+](=O)[O-])c4)c(Oc4cnc5[nH]ccc5c4)c3)CC2)=C(c2ccc(Cl)cc2)C1 [Venetoclax]; conditions: max 1 µM
Procedure, shortened: as §1

[9] = compound: CC1=C(C(=CC=C1)Cl)NC(=O)C2=CN=C(S2)NC3=CC(=NC(=N3)C)N4CCN(CC4)CCO [Dasatinib]; conditions: max 2 µM
Procedure, shortened: as §1

[10] = compound: CC1=CN2[C@@H](C1)C=NC3=CC(=C(C=C3C2=O)OC)OCCCCCOC4=C(C=C5C(=C4)N=C[C@@H]6CC(=CN6C5=O)C)OC [SG3199]; conditions: max 0.001 µM
Procedure, shortened: as §1

[11] = compound: CCN(CCO)CCCOc1ccc2c(Nc3cc(CC(=O)Nc4cccc(F)c4)[nH]n3)ncnc2c1 [AZD2811]; conditions: max 1 µM
Procedure, shortened: as §1

[12] = compound: CCc1c2c(nc3ccc(O)cc13)-c1cc3c(c(=O)n1C2)COC(=O)[C@]3(O)CC [SN-38]; conditions: max 0.3 µM
Procedure, shortened: as §1

[13] = compound: CN(C)CCCOc1ccc(-c2ccc3ncc4c(c3c2)n(C2CCOCC2)c(=O)n4C)cn1 [AZD0156]; conditions: max 3 µM
Procedure, shortened: as §1

[14] = compound: CN(CC[C@H](CSC1=CC=CC=C1)NC2=C(C=C(C=C2)S(=O)(=O)NC(=O)C3=CC=C(C=C3)N4CCC(CC4)[C@H](C5=CC=CC=C5C6=CC=C(C=C6)Cl)O)S(=O)(=O)C(F)(F)F)CCO [AZD4320]; conditions: max 1 µM
Procedure, shortened: as §1

[15] = compound: COc1cc(Nc2ncc3c(n2)-c2ccc(Cl)cc2C(c2c(F)cccc2OC)=NC3)ccc1C(=O)O [Alisertib]; conditions: max 10 µM
Procedure, shortened: as §1

[16] = compound: COc1cc([C@@H]2c3cc4c(cc3[C@@H](O[C@@H]3O[C@@H]5CO[C@@H](C)O[C@H]5[C@H](O)[C@H]3O)[C@H]3COC(=O)[C@H]23)OCO4)cc(OC)c1O [Etoposide]; conditions: max 10 µM
Procedure, shortened: as §1

[17] = compound: COc1cc2ncnc(Nc3ccc(F)c(Cl)c3)c2cc1OCCCN1CCOCC1 [Gefitinib]; conditions: max 10 µM
Procedure, shortened: as §1

[18] = compound: COc1cccc(OCCCN)c1-c1cc(Nc2cnc(C#N)cn2)n[nH]1 [Prexasertib]; conditions: max 1 µM
Procedure, shortened: as §1

[19] = compound: COc1cccc2c1C(=O)c1c(O)c3c(c(O)c1C2=O)C[C@@](O)(C(=O)CO)C[C@@H]3O[C@H]1C[C@H](N)[C@H](O)[C@H](C)O1 [Doxorubicin]; conditions: max 1 µM
Procedure, shortened: as §1

[20] = compound: COc1nnc2ccc(N3CCC(c4ccc(OCCN5CCN(C)C(=O)[C@H]5C)cc4)CC3)nn12 [AZD5153]; conditions: max 1 µM
Procedure, shortened: as §1

[21] = compound: CS(=O)(=O)CCNCc1ccc(-c2ccc3ncnc(Nc4ccc(OCc5cccc(F)c5)c(Cl)c4)c3c2)o1 [Lapatinib]; conditions: max 10 µM
Procedure, shortened: as §1

[22] = compound: C[C@@H](Nc1cc(F)cc(F)c1)c1cc(C(=O)N(C)C)cc2c(=O)cc(N3CCOCC3)oc12 [AZD8186]
Procedure, shortened: as §1

[23] = compound: C[C@@H](Oc1cc(-c2cnn(C3CCNCC3)c2)cnc1N)c1c(Cl)ccc(F)c1Cl [Crizotinib]; conditions: max 10 µM
Procedure, shortened: as §1

[24] = compound: C[C@@H](c1ccc2nccn2c1)n1nnc2ncc(-c3cnn(C)c3)nc21 [Savolitinib]; conditions: max 1 µM
Procedure, shortened: as §1

[25] = compound: C[C@@H]1COCCN1C2=NC(=NC(=C2)C3(CC3)[S@](=N)(=O)C)C4=C5C=CNC5=NC=C4 [AZD6738]; conditions: max 10 µM
Procedure, shortened: as §1

[26] = compound: Cc1c2c(nn1C)CSCc1cc(n(C)n1)CSc1cc(c3ccccc3c1)OCCCc1c(C(=O)O)n(C)c3c-2c(Cl)ccc13 [AZD5991]; conditions: max 1 µM
Procedure, shortened: as §1

[27] = compound: Cc1cc2ncnn2cc1Nc1ncc2c(n1)n(C1CCOCC1)c(=O)n2C [AZD7648]; conditions: max 10 µM
Procedure, shortened: as §1

[28] = compound: Cc1nc(-c2cn3c(n2)-c2ccc(-c4cnn(C(C)(C)C(N)=O)c4)cc2OCC3)n(C(C)C)n1 [Taselisib]; conditions: max 10 µM
Procedure, shortened: as §1

[29] = compound: Cn1cnc2c(F)c(Nc3ccc(Br)cc3Cl)c(C(=O)NOCCO)cc21 [Selumetinib]; conditions: max 10 µM
Procedure, shortened: as §1

[30] = compound: N#Cc1cnc(Nc2cc(NC[C@H]3CNCCO3)c(C(F)(F)F)cn2)cn1 [SRA737]; conditions: max 10 µM
Procedure, shortened: as §1

[31] = compound: NC1(c2ccc(-c3nc4ccn5c(=O)[nH]nc5c4cc3-c3ccccc3)cc2)CCC1 [MK-2206]; conditions: max 10 µM
Procedure, shortened: as §1

[32] = compound: Nc1ccn([C@@H]2O[C@H](CO)[C@@H](O)C2(F)F)c(=O)n1 [Gemcitabine]; conditions: max 0.3 µM
Procedure, shortened: as §1

[33] = compound: O=C(Nc1ccc2[nH]nc(-c3ccncc3)c2c1)[C@@H]1CCN(CC(=O)N2CCN(c3ccc(-c4ncccn4)cc3)CC2)C1; conditions: max 5 µM
Procedure, shortened: as §1

[34] = compound: O=C(c1cc(Cc2n[nH]c(=O)c3ccccc23)ccc1F)N1CCN(C(=O)C2CC2)CC1 [Olaparib]; conditions: max 10 µM
Procedure, shortened: as §1

[35] = compound: O=c1[nH]cc(F)c(=O)[nH]1 [5-Fluorouracil]; conditions: max 20 µM
Procedure, shortened: as §1

[36] = compound: C1CN(CCC1(C(=O)N[C@@H](CCO)C2=CC=C(C=C2)Cl)N)C3=NC=NC4=C3C=CN4 [Capivasertib]; conditions: max 10 µM
Procedure, shortened: as §1

Cell Line | IC50, cell viability 72 h [1] [µM] | IC50, cell viability 72 h [2] [µM] | IC50, cell viability 72 h [3] [µM] | IC50, cell viability 72 h [4] [µM] | IC50, cell viability 72 h [5] [µM] | IC50, cell viability 72 h [6] [µM] | IC50, cell viability 72 h [7] [µM] | IC50, cell viability 72 h [8] [µM] | IC50, cell viability 72 h [9] [µM] | IC50, cell viability 72 h [10] [µM] | IC50, cell viability 72 h [11] [µM] | IC50, cell viability 72 h [12] [µM] | IC50, cell viability 72 h [13] [µM] | IC50, cell viability 72 h [14] [µM] | IC50, cell viability 72 h [15] [µM] | IC50, cell viability 72 h [16] [µM] | IC50, cell viability 72 h [17] [µM] | IC50, cell viability 72 h [18] [µM] | IC50, cell viability 72 h [19] [µM] | IC50, cell viability 72 h [20] [µM] | IC50, cell viability 72 h [21] [µM] | IC50, cell viability 72 h ([22]; max 10 µM) [µM] | IC50, cell viability 72 h [23] [µM] | IC50, cell viability 72 h [24] [µM] | IC50, cell viability 72 h [25] [µM] | IC50, cell viability 72 h [26] [µM] | IC50, cell viability 72 h [27] [µM] | IC50, cell viability 72 h [28] [µM] | IC50, cell viability 72 h [29] [µM] | IC50, cell viability 72 h [30] [µM] | IC50, cell viability 72 h [31] [µM] | IC50, cell viability 72 h [32] [µM] | IC50, cell viability 72 h [33] [µM] | IC50, cell viability 72 h [34] [µM] | IC50, cell viability 72 h [35] [µM] | IC50, cell viability 72 h [36] [µM] | IC50, cell viability 72 h ([22]; max 3 µM) [µM]
SW684 (Other Solid Carcinomas) | > 10 | > 10 | > 3 | > 1 | 1.43 | > 10 | > 0.3 | > 1 | > 2 | > 0.001 | > 1 | > 0.3 | > 3 | > 1 | > 10 | > 10 | > 10 | > 1 | > 1 | > 1 | > 10 | > 10 | > 10 | > 1 | > 10 | > 1 | > 10 | 3.53 | > 10 | > 10 | > 10 | > 0.3 | > 5 | > 10 | > 20 |  | 
LAMA-84 (Chronic Myelogenous Leukemia) | > 10 | > 10 | 0.351 | 0.0163 | 0.037 | 3.09 | > 0.3 | > 1 | < 0.002 | > 0.001 | > 1 | 0.0246 | > 3 | 0.486 | 0.305 | 8.28 | > 10 | 0.0173 | > 1 | 0.146 | > 10 | > 10 | 0.527 | > 1 | 2.02 | > 1 | > 10 | > 10 | 1.57 | 2.11 | 5.12 | 0.0246 | 0.915 | > 10 | > 20 |  | 
HCC-44 (Lung Adenocarcinoma) | > 10 | 9.96 | 0.934 | 0.236 | 0.0136 | > 10 | > 0.3 | > 1 | 0.705 |  | > 1 | 0.177 | > 3 | > 1 |  | > 10 | > 10 |  |  | 0.29 | > 10 | > 10 | 8.92 | > 1 | > 10 | > 1 | > 10 | 2.24 | > 10 | > 10 | > 10 | 0.225 | 2.8 | > 10 | > 20 |  | 
FLO-1 (Esophageal Adenocarcinoma) | > 10 | > 10 | 0.266 | > 1 | 0.00542 | > 10 | > 0.3 | > 1 | 0.0648 | > 0.001 | > 1 | 0.201 | > 3 | > 1 | 7.3 | 2.55 | > 10 | 0.0993 | 0.225 | 0.793 | > 10 | > 10 | 9.36 | > 1 | > 10 | > 1 | > 10 | 8.83 | > 10 | > 10 | > 10 | 0.0938 | > 5 | > 10 | 7.08 |  | 
ES-2 (Ovarian Carcinoma) |  |  | 0.476 | 0.128 |  | > 10 | > 0.3 | > 1 | > 2 | > 0.001 | > 1 | 0.0145 | > 3 | > 1 | 0.596 |  | > 10 | 0.0401 | > 1 | 0.875 | > 10 |  | > 10 | > 1 | 3.78 | > 1 | > 10 | > 10 | 7.43 |  | 4.4 |  |  | > 10 |  | > 10 | > 3

From the supplement of paper PMC11061612
